Data from patent US8748598B2, “Analogs of 3-O-acetyl-11-keto-beta-boswellic acid” (Laila Nutraceuticals, priority 2004, dated 2014).
In brackets after ≈: the same amount, converted by molar mass. Several values for one entry are separate records, joined by “and”; a condition that tells them apart may be missing. Equal values may be shown once. Entries after “also recorded” stand apart in the source; their conditions may differ. Read-outs that look alike come from different tables or passages of the source.

Tests used:
MDA-MB-231 [1] = experiment: MDA-MB-231 clone (colony) formation in vitro; type: cell-based, human; conditions: 8 days
Experimental: Inhibitory efficacy in clone formation of LI-51255 was tested by following the procedure described earlier with some modifications (Wu et al. 2005). Briefly, MDA-MB-231 cells were harvested and seeded into 6-well plates (100 cells/ml). The cells were allowed to grow for 4 days and thereafter, the cells were incubated with DMEM containing either 0.5% DMSO or 25 μg/ml AKBA or different concentrations (1.0, 1.5, 2.0, 2.5 μg/ml) of LI-51255 for further 8 days. Fresh medium containing test agents was replaced at every 24 h. Finally, the wells were washed three times with PBS and fixed in methanol for 15 min. The cells were stained with Giemsa stain and observed under microscope. The image of the stained wells were captured digitally (Kodak Image Station 4000MM, Carestream Health Inc., New Haven, Conn.) and number of colonies were counted and analyzed by using NIH Image J software.

MDA-MB-231 [2] = experiment: MTT cell proliferation assay, MDA-MB-231; type: cell-based, human; conditions: Table 4
Experimental: (§1) MTT [3-(4,5-dimethylthiazol-2-yl)-2,5-diphenyltetrazolium bromide] incorporation based cell proliferation assay was performed as described previously (Reference). The cytotoxic efficacy of some analogs was evaluated in different cell lines by MTT cell proliferation assay kit (Roche Applied Sciences, Germany). The assay was carried out according to the instruction provided by the vendor. Briefly, in brief, equal numbers of cells was plated in 96-well flat-bottomed plates in 100 μl of medium and were exposed to different analogs selected from 1 to 63 at various concentrations up to 10 μg/ml for a period of three days. Vehicle control culture wells received only a maximum of 0.5% DMSO. Thereafter, 0.5 mg/ml of MTT reagent was added to each well and the microplate was incubated further for 4 h at 37° C. in presence of 5% CO2. Finally, the cells were solubilized by adding solubilizing solution and allowed to incubate at 37° C. overnight. After complete solubilization of the formazan crystals the absorbance was read at 540 nm in a microplate reader (BioRad, USA). The results (mean OD±SD) obtained from quadruplicate wells were used in calculation to determine the inhibition of cell proliferation (50% of inhibitory concentration, IC50) of the test compounds.
(§2) The cytotoxic properties of some analogs were evaluated by MTT incorporation assay. The methodology of the assay procedure was the same as mentioned in example 41.

MCF-7 = experiment: MTT cell proliferation assay, MCF-7; type: cell-based, human; conditions: Table 4
Experimental: as §1, §2

VEGF = conditions: HUVEC, 24 h, immunoblot; listed as LI51255
Experimental: Equal number of HUVEC human primary endothelial cells was plated in 35 mm culture dishes. The cells exposed to either 0.5% DMSO as vehicle or LI-51255 for 24 h. The cells were lysed in cell lysis buffer. The protein concentration of each lysate was determined by the BCA method (BioRad, Hercules, Calif.). Equal amount of cell lysates proteins was resolved in SDS-PAGE and the transferred proteins on nitrocellulose membrane were reacted with human anti-VEGF antibody (Cell Signaling Technology, Beverly, Mass.) overnight at 4° C. Immunoreactive proteins were detected using were developed with Super SignalWest Pico Chemiluminescent substrate (Pierce Biotechnology Inc.) and the band intensities were analyzed using Molecular Imaging Software, version 4.0 (Eastman Kodak Company, Rochester, N.Y.). Relative density was determined by normalization of the density of each blot with that of corresponding β-actin.

[3] = test system: Human umbilical vein endothelial cells (HUVEC); experiment: In vitro capillary-like tube formation assay; type: cell-based; conditions: HUVEC on Cultrex, 1, 2.5 and 5 μg/ml, 16 h; listed as LI-51255
Experimental: In vitro capillary formation assay was performed with Human umbilical vein endothelial cells (HUVEC), cultured on 10 mg/ml basement membrane extract (BME—Cultrex®, R&D Systems, USA) bed. The protocol of in vitro endothelial tube formation assay was the same as described earlier with some modifications (Reference). Briefly, four hundred microliters of Cultrex was coated at 4° C. in each well of 24-well culture plate and allowed to gel at 37° C. for 1 h. HUVECs were plated at a density of 7.5×10^4 cells per well with 400 μl of DMEM supplemented with 10% fetal bovine serum and 4.5 g/l D-glucose. The cells were then treated with either 0.5% DMSO or different concentrations of LI-51255 for 16 hours. Pictures were taken under a Nikon Eclipse TS 100 microscope equipped with a Nikon Coolpix camera (FIG. 1B).

AKT pathway = AKT pathway western immunoblot in MDA-MB-231 cells; type: cell-based, human; conditions: MDA-MB-231, 10 μg/ml, 0-240 min
Experimental: Equal number of MDA-MB-231 human breast tumor cells (ER-) was plated in 25 cm^2 cell culture flasks. The cells treated with either 0.5% DMSO as vehicle or 10 μg/ml of LI-51255 for 0, 5, 10, 20, 30, 60, 120 and 240 min. The cells were lysed in cell lysis buffer.

[4] = test system: B16 murine melanoma cells; experiment: Cell cycle analysis by flow cytometry; type: cell-based; conditions: 24 h
Experimental: For flow cytometry, cells were harvested after the treatment period, washed with phosphate buffered saline (PBS), and adjusted the cell count at 2×10^6 cells per milliliter. The cells were fixed in 70% ethanol for 30 min at 4° C. Cells were then washed two times with PBS and stained with 0.5 μg/ml propidium iodide at 37° C. for 30 min and analyzed by flow cytometry. Data were acquired on a FACS Scan flow cytometer (Becton Dickinson) and analyzed by using the Cellquest software.

[5] = test system: B16 F0 melanoma xenograft; experiment: B16 F0 melanoma xenograft model; type: in vivo, C57B6J mice; conditions: twelve days; for % reduction of tumor burden (w.r.t control): listed as LI-51255
Experimental: In vivo efficacy of LI-51255 against melanoma growth was evaluated in B16 F0 melanoma xenograft model of C57B6J mice. C57B6J mice of 6 weeks age (body weight 18-22 g) were purchased from National Institute of Nutrition (NIN), Hyderabad (India). Animals study protocols were approved by Institutional Ethics Committee (IAEC). All the studies were performed in compliance with the Committee for the Purpose of Control and Supervision of Experiments on Animals (CPCSEA) guidelines and OECD guidelines. Animals were allowed free access to standard feed and provided charcoal filtered and UV exposed water ad libitum. The animals were maintained at a controlled temperature (24-26° C.), humidity (45-70%), and 12 h/12 h of light/dark cycle.
To induce the melanoma tumor formation, sub-confluent B16F0 cells were harvested by brief trypsinization and 1×10^6 cells were injected subcutaneously in 0.2 mL phosphate-buffered saline. Drug treatment was started after development of palpable tumors (3-5 days after implantation of the cells). Drugs were prepared in phosphate-buffered saline (10% DMSO, v/v) and either 75 mg/kg of DTIC or different doses of LI-51255 (10 or 20 mg/kg) was administered daily through intra-peritoneal route. Vehicle treated control animals received only 10% DMSO in phosphate buffered saline. After twelve days of treatment, the animals were sacrificed by CO2 inhalation and tumors were excised and weighed.

[6] = test system: Freund's Adjuvant-induced arthritis in Wistar Albino rats; experiment: Freund's adjuvant-induced arthritis, paw edema; type: in vivo; conditions: 10 mg/kg daily oral for 30 days; edema 13 days after Freund's Adjuvant
Experimental: The Wistar Albino rats were divided into four groups with […] each group. The two treatment groups, each containing 6 animals, were orally supplemented with one of the two analogs namely glycinate of AKBA (10) or piperazine amide of AKBA (23) in 1% carbomethylcellulose (CMC) at a daily dose of 10 mg/kg for 30 days. The control group of animals received same volume of 1% CMC orally and a positive control group received 10 mg/kg daily dose of prednisolone for direct comparison. Following the 30 day treatment and one hour after the last dose all the animals were challenged with 0.1 mL of 1% solution of Freund's Adjuvant through a subcutaneous injection in the sub-plantar region of left hind paw. The paw volume was measured using a plethymograph. The difference between the paw volumes measured before and 13 days after the Freund's Adjuvant injection was taken as edema volume. The percentage inhibition was calculated by comparing the mean edema of the control group and treatment groups.

Brine shrimp = Brine shrimp lethality; type: in vivo; conditions: for IC50: read-out: Brine shrimp lethality IC50
Experimental: The Brine shrimp lethality was evaluated for the analogs 1 to 28 and compared the activities with those of AKBA and a standard compound podophyllotoxin. The data was summarized already disclosed in our earlier application Ser. No. 10/540,257 which is granted under U.S. Pat. No. 7,625,947 which is incorporated herein by reference. The magnitude of Brine shrimp lethality obtained for the analogs has significant correlation with 5-LOX inhibitory activity.

Jurkat = type: cell-based, human; parameters: minimum inhibitory concentration (MIC) Jurkat: unit not given here; conditions: MTT assay
Experimental: as §1, §2

PC3M = experiment: Cytotoxicity MTT assay, PC3M; type: cell-based, human; parameters: minimum inhibitory concentration (MIC) PC3M: unit not given here; conditions: for minimum inhibitory concentration (MIC) PC3M: MTT assay
HePG2 = experiment: Cytotoxicity MTT assay, HePG2; type: cell-based, human; parameters: unit not given here
Experimental: as §1, §2

[7] = 10 mg/kg daily intra-peritoneal
[8] = 20 mg/kg daily intra-peritoneal

**Q.** With “3-O-acetyl-11-keto-β-boswellic acid [AKBA, reference compound]” as the compound, how does the MDA-MB-231 colony formation (MDA-MB-231 [1]; 25 μg/ml) read?
**A.** inhibition of MDA-MB-231 colony formation

**Q.** CC(=O)OC1CC[C@@]2(C)C(CC[C@]3(C)C2C(=O)C=C2C4[C@@H](C)[C@H](C)CC[C@]4(C)CC[C@]23C)[C@@]1(C)C(=O)NCCN (stereo partly drawn) [Analog 21, N-(3-O-Acetyl-11-keto-[beta]-boswelloyl)-ethylenediamine] was tested. Which “IC50 values MDA-MB-231” value (MDA-MB-231 [2]) did it give?
**A.** 3.45 µg/mL (≈ 6.22 µM)

**Q.** And the “IC50 values MCF-7” value (MCF-7)?
**A.** 12.98 µg/mL (≈ 23.4 µM)

**Q.** And the VEGF protein expression (VEGF)?
**A.** strongly inhibited

**Q.** And the capillary-like tube formation [3]?
**A.** dose-dependent inhibition; also recorded: inhibits capillary-like tube formation

**Q.** What about the AKT protein expression (AKT pathway) of the same compound?
**A.** remains the same

**Q.** And the “phospho-raf (ser 259) expression” value (AKT pathway)?
**A.** up-regulation

**Q.** And the “phosphorylated AKT (ser 473) protein expression” value (AKT pathway; listed as LI-51255)?
**A.** deactivates AKT pathway; also recorded: time dependent down regulation

**Q.** What about the MDA-MB-231 colony formation (MDA-MB-231 [1]; 1.0, 1.5, 2.0, 2.5 μg/ml, listed as LI-51255) of the same compound?
**A.** potentially inhibits the growth and development; also recorded: inhibition of MDA-MB-231 colony formation

**Q.** And the “cell cycle progression” value [4]?
**A.** arrests the growth of B16 murine melanoma cells at the subG1 phase

**Q.** And the G1 ([4]; LI-51255 5 (mg/ml))?
**A.** 74.74

**Q.** And the G2/M ([4]; LI-51255 5 (mg/ml))?
**A.** 12.2

**Q.** What about the S ([4]; LI-51255 5 (mg/ml)) of the same compound?
**A.** 11.18

**Q.** And the “Sub G1” value ([4]; LI-51255 5 (mg/ml))?
**A.** 1.7

**Q.** And the G1 ([4]; LI-51255 10 (mg/ml))?
**A.** 60.25

**Q.** And the G2/M ([4]; LI-51255 10 (mg/ml))?
**A.** 9.19

**Q.** And the S ([4]; LI-51255 10 (mg/ml))?
**A.** 10.87

**Q.** What about the “Sub G1” value ([4]; LI-51255 10 (mg/ml)) of the same compound?
**A.** 19.76

**Q.** And the “Average weight of tumor” value [5, 7]?
**A.** 4.575 gm

**Q.** And the “% reduction of tumor burden (w.r.t control)” value [5, 7]?
**A.** 27.25% and 27.253%

**Q.** What about the “Average weight of tumor” value [5, 8] of the same compound?
**A.** 3.050 gm

**Q.** And the “% reduction of tumor burden (w.r.t control)” value [5, 8]?
**A.** 51.5% and 51.502%

**Q.** Which “inhibition of paw edema” value [6] does the source give for CC(=O)OC1CCC2(C)C(CCC3(C)C2C(=O)C=C2C4C(C)C(C)CCC4(C)CCC23C)C1(C)C(=O)N1CCNCC1 (centres unmarked) [Analog 23] here?
**A.** 16.4% and 16.3%

**Q.** What about the IC50 (Brine shrimp; in vivo) of the same compound?
**A.** 880 nM

**Q.** What about the “IC50 values MDA-MB-231” value (MDA-MB-231 [2]) of the same compound?
**A.** IC50 at 5.53 μg/ml

**Q.** And the “IC50 values MCF-7” value (MCF-7)?
**A.** IC50 at 9.03 μg/ml

**Q.** What about the “minimum inhibitory concentration (MIC) Jurkat” value (Jurkat) of the same compound?
**A.** 50

**Q.** What about the “cytotoxicity against PC3M” value (PC3M) of the same compound?
**A.** significantly more potent

**Q.** What about the “minimum inhibitory concentration (MIC) PC3M” value (PC3M) of the same compound?
**A.** 10

**Q.** What about the “minimum inhibitory concentration (MIC) HePG2” value (HePG2) of the same compound?
**A.** 40

**Q.** CC(=O)O[C@@H]1CC[C@@]2(C)C(CC[C@]3(C)C2C(=O)C=C2C4[C@@H](C)[C@H](C)CC[C@]4(C)CC[C@]23C)[C@@]1(C)N (some centres unmarked) [Analog 25] was tested. Which “inhibitory capabilities against brine shrimp” value (Brine shrimp; in vivo) did it give?
**A.** potent inhibitory capabilities

**Q.** And the IC50 (MDA-MB-231 [2]; Homo sapiens, MDA-MB-231)?
**A.** 13.2 µg/mL (≈ 27.3 µM)

**Q.** What about the IC50 (MCF-7; Homo sapiens, MCF7) of the same compound?
**A.** 14 µg/mL (≈ 28.9 µM)

**Q.** And the “minimum inhibitory concentration (MIC) Jurkat” value (Jurkat)?
**A.** 50

**Q.** What about the “cytotoxicity against PC3M” value (PC3M) of the same compound?
**A.** significantly more potent

**Q.** And the “minimum inhibitory concentration (MIC) PC3M” value (PC3M)?
**A.** 30

**Q.** What about the “minimum inhibitory concentration (MIC) HePG2” value (HePG2) of the same compound?
**A.** 50

**Q.** Which IC50 (Brine shrimp) does the source give for COc1cc([C@@H]2c3cc4c(cc3[C@H](O)[C@H]3COC(=O)[C@H]23)OCO4)cc(OC)c1OC [podophyllotoxin, reference compound] here?
**A.** 3000 nM
